Like-named read-outs stand apart in the source and are kept apart here.
Tested on: three-dimensional cultured human skin model (EPI-606X)
Assay: Skin permeability test
Protocol: A three-dimensional cultured human skin model (EPI-606X, Kurabo Industries Ltd., area: 3.8 cm^2) was placed in a 6-well plate containing PBS solution (1 mL) so that the lower portion thereof was submerged. The human skin model was then allowed to stand undisturbed for 30 minutes in an incubator under conditions of 37° C. and a carbon dioxide concentration of 5%. Next, the PBS solution in the lower wells of the skin model was replaced with HBSS(−) solution (Hanks solution, 1 mL) (to be referred to as the “receiver liquid”) and the sample solution (700 μL) obtained above was administered onto the skin model. The skin model was then allowed to stand undisturbed for 24 hours in an incubator under conditions of 37° C. and a carbon dioxide concentration of 5%.
After allowing to stand undisturbed for 24 hours, the sample solution on the skin model was removed using a pipette followed by removing the skin model from the wells and washing with PBS (−) solution. Next, a section of the skin model was cut out and placed in a 2 mL tube. Methanol (1 mL) and stainless steel beads (Tomy Co., Ltd., diameter: 5.5 mm) were added to the tube followed by crushing the section using a Multi Beads Shocker (Yasui Kikai Corp.) under conditions of 10 seconds at 2000 rpm for 10 cycles.
Following crushing, the resulting solution was transferred to a 2 mL Eppendorf tube and centrifuged for 5 minutes at 12000 rpm followed by filtering the supernatant with a filter (pore diameter: 0.22 μm) to obtain a skin model extract.
Next, the amounts of test substance in the skin model extract and receiver liquid were quantified for each test substance under the previously described HPLC Analysis Conditions 1. The total amount of test substance absorbed by the skin model in each well was calculated from the quantified value of test substance in the skin model extract. In addition, the quantified value of test substance in the receiver liquid was used as the amount of test substance that permeated the skin model. The total value A (μg) of the total amount of test substance absorbed by the skin model and the amount of test substance that permeated the skin model was then calculated.
The permeation rate (%) through the skin model for each test substance administered to the skin model was calculated according to the following equation (i). Moreover, the aforementioned skin permeability test was carried out three times for each test substance followed by calculation of each permeation rate (%). […] Furthermore, the value shown in front of the (±) symbol in the column entitled “Permeation Rate (%)” indicates the average value of the three results, while the number after the (±) symbol indicates the range of variation of the three results. Permeation rate (%)=(A/1400(amount of test substance administered to skin model) (μg)))×100 (i)

[1] = 0.2% by weight sample solution in PBS(-), pH 7.4, 700 μL on skin model, 24 hours, 37° C., average ± range of variation of three results
[2] = skin model, 24 hours, compared with non-acylated β-NMN or among the examples

Compound	Permeation Rate (%) (pH 7.4)	Permeation Rate (%) [1]	Permeation rate, comparison in words [2]	Permeation rate, comparison in words
NC(=O)c1ccc[n+]([C@@H]2O[C@H](COP(=O)([O-])O)[C@@H](O)[C@H]2O)c1 [Comparative Example 2, β-nicotinamide mononucleotide, reference compound]	15 ± 0.4%	–	–	–
CCCCCCCCCCCCCCCC(=O)O[C@H]1[C@@H](O)[C@H]([n+]2cccc(C(N)=O)c2)O[C@@H]1COP(=O)([O-])O [Example 1, 3′-palmitoyl-β-nicotinamide mononucleotide]	–	40 ± 4.7%	particularly high	–
CCCCCCCCCCCCCCCC(=O)O[C@@H]1[C@H](OC(=O)CCCCCCCCCCCCCCC)[C@@H](COP(=O)([O-])O)O[C@H]1[n+]1cccc(C(N)=O)c1 [Example 2, 2′,3′-dipalmitoyl-β-nicotinamide mononucleotide]	–	41 ± 1.7%	particularly high	–
CCCCCCCCCCCC(=O)O[C@H]1[C@@H](O)[C@H]([n+]2cccc(C(N)=O)c2)O[C@@H]1COP(=O)([O-])O [Example 3, 3′-lauroyl-β-NMN]	35 ± 4.7%	–	–	particularly high
CCCCCCCCCCCC(=O)O[C@@H]1[C@H](OC(=O)CCCCCCCCCCC)[C@@H](COP(=O)([O-])O)O[C@H]1[n+]1cccc(C(N)=O)c1 [Example 4, 2′,3′-dilauroyl-β-NMN]	40 ± 4.7%	–	–	particularly high
CCCCCCCC(=O)O[C@H]1[C@@H](O)[C@H]([n+]2cccc(C(N)=O)c2)O[C@@H]1COP(=O)([O-])O [Example 5, 3′-octanoyl-β-NMN]	31 ± 4.7%	–	–	–
CCCCCCCC(=O)OC1C(COP(=O)([O-])O)OC([n+]2cccc(C(N)=O)c2)C1OC(=O)CCCCCCC (stereo not drawn) [Example 6, 2′,3′-dioctanoyl-β-NMN]	–	38 ± 4.7%	–	–
CCCCCC(=O)O[C@H]1[C@@H](O)[C@H]([n+]2cccc(C(N)=O)c2)O[C@@H]1COP(=O)([O-])O [Example 7, 3′-hexanoyl-β-NMN]	29 ± 4.7%	–	–	–
CCCCCC(=O)O[C@@H]1[C@H](OC(=O)CCCCC)[C@@H](COP(=O)([O-])O)O[C@H]1[n+]1cccc(C(N)=O)c1 [Example 8, 2′,3′-dihexanoyl-β-NMN]	37 ± 2.7%	–	–	–
CCCCCCCCCCCCCCCC(=O)O[C@@H]1[C@H](OC(=O)CCCCCCCCCCCCCCC)[C@@H](COP(=O)([O-])[O-])O[C@H]1[n+]1cccc(C(N)=O)c1.[Na+] [Example 11, 2′,3′-dipalmitoyl-β-NMN sodium salt]	41 ± 2.7%	–	–	high permeation rate in comparison with the non-acylated β-NMN of Comparative Example 2
CC(=O)O[C@@H]1[C@H](OC(C)=O)[C@@H](COP(=O)([O-])O)O[C@H]1[n+]1cccc(C(N)=O)c1 [Synthesis Example 1, 2′,3′-diacetyl-β-nicotinamide mononucleotide, reference compound]	–	16 ± 1.7%	equal to that of the non-acylated β-NMN of Comparative Example 2	–
